Test results from the supplement of paper PMC6045584.
± gives the standard deviation of the averaged measurements.

Key:
AFIMOXIFENE = compound: CC/C(=C(\c1ccc(O)cc1)c1ccc(OCCN(C)C)cc1)c1ccccc1 [AFIMOXIFENE]; assay: surviving fraction relative to DMSO-only wells; higher = less growth inhibition; settings: exposure time: 5 days
In short: (§1)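 At 250–500 cells per well in 384-well plates, log-phase tumour cell lines were seeded and, 24 hours on, exposed continuously for five days to inhibitors at 0.5, 1, 5, 10, 50, 100, 500 and 1000 nM. Viability readout was CellTiter-Glo luminescence, reported as surviving fraction normalised to the median of DMSO-only wells.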

CABOZANTINIB = compound: COc1cc2nccc(Oc3ccc(NC(=O)C4(C(=O)Nc5ccc(F)cc5)CC4)cc3)c2cc1OC [CABOZANTINIB]; assay: as above; settings: exposure time: 5 days
In short: as §1

| Test System | surviving fraction (AFIMOXIFENE; 0.5 nM) | surviving fraction (AFIMOXIFENE; 1 nM) | surviving fraction (AFIMOXIFENE; 5 nM) | surviving fraction (AFIMOXIFENE; 10 nM) | surviving fraction (AFIMOXIFENE; 50 nM) | surviving fraction (AFIMOXIFENE; 100 nM) | surviving fraction (AFIMOXIFENE; 500 nM) | surviving fraction (AFIMOXIFENE; 1000 nM) | surviving fraction (CABOZANTINIB; 0.5 nM) | surviving fraction (CABOZANTINIB; 1 nM) | surviving fraction (CABOZANTINIB; 5 nM) | surviving fraction (CABOZANTINIB; 10 nM) | surviving fraction (CABOZANTINIB; 50 nM) | surviving fraction (CABOZANTINIB; 100 nM) | surviving fraction (CABOZANTINIB; 500 nM) | surviving fraction (CABOZANTINIB; 1000 nM) |
| --- | --- | --- | --- | --- | --- | --- | --- | --- | --- | --- | --- | --- | --- | --- | --- | --- |
| MDAMB436 BREAST | 0.962 ± 0.085 | 0.99 ± 0.11 | 0.965 ± 0.087 | 1.03 ± 0.21 | 1.03 ± 0.11 | 1.08 ± 0.13 | 1.01 ± 0.066 | 1 ± 0.063 | 0.95 ± 0.067 | 0.94 ± 0.04 | 1 ± 0.17 | 0.973 ± 0.029 | 1.04 ± 0.096 | 0.951 ± 0.097 | 1.04 ± 0.058 | 1.02 ± 0.11 |
| MDAMB453 BREAST | 1.09 ± 0.098 | 1.07 ± 0.07 | 1.11 ± 0.066 | 1.17 ± 0.16 | 1.1 ± 0.068 | 1.07 ± 0.029 | 1.07 ± 0.039 | 1.02 ± 0.026 | 1.04 ± 0.049 | 1.01 ± 0.034 | 1.09 ± 0.051 | 1.03 ± 0.052 | 1.01 ± 0.092 | 1.06 ± 0.014 | 1.06 ± 0.062 | 1.02 ± 0.041 |
| MDAMB468 BREAST | 1.01 ± 0.021 | 0.991 ± 0.034 | 1.06 ± 0.054 | 1.09 ± 0.02 | 1.12 ± 0.077 | 1.21 ± 0.046 | 1.14 ± 0.024 | 1.05 ± 0.0095 | 1.04 ± 0.089 | 1.11 ± 0.044 | 1.05 ± 0.057 | 1.09 ± 0.017 | 1.13 ± 0.067 | 1.15 ± 0.07 | 1.05 ± 0.086 | 1.07 ± 0.092 |
| MFM223 BREAST | 1.28 ± 0.067 | 1.21 ± 0.043 | 1.19 ± 0.084 | 1.22 ± 0.13 | 1.2 ± 0.043 | – | 1.1 ± 0.062 | 0.932 ± 0.043 | 1.12 ± 0.16 | 1.04 ± 0.048 | 1.12 ± 0.094 | 1.06 ± 0.086 | 1.16 ± 0.17 | 1.22 ± 0.073 | 1.05 ± 0.029 | 0.824 ± 0.098 |
| MG63 BONE | 1.06 ± 0.04 | 1.04 ± 0.027 | 1.1 ± 0.048 | 1.07 ± 0.051 | 1.09 ± 0.05 | 1.05 ± 0.048 | 1.02 ± 0.036 | 1.02 ± 0.049 | 0.966 ± 0.019 | 1.02 ± 0.042 | 1.05 ± 0.021 | 1.03 ± 0.032 | 1.03 ± 0.019 | 0.946 ± 0.037 | 0.724 ± 0.011 | 0.696 ± 0.031 |
| MHM BONE | 1.02 ± 0.021 | 1.03 ± 0.05 | 1.09 ± 0.049 | 1.07 ± 0.033 | 1.06 ± 0.025 | 1.06 ± 0.027 | 1.01 ± 0.022 | 1.02 ± 0.028 | 1.02 ± 0.045 | 1.01 ± 0.037 | 1.02 ± 0.026 | 1.04 ± 0.043 | 1.044 ± 0.0055 | 0.99 ± 0.021 | 0.896 ± 0.022 | 0.915 ± 0.019 |
| NCIH441 LUNG | 1.06 ± 0.11 | 1.07 ± 0.12 | 1.04 ± 0.11 | 1.12 ± 0.12 | 1.08 ± 0.11 | 1.14 ± 0.024 | 1.23 ± 0.03 | 1.03 ± 0.13 | 1.07 ± 0.042 | 1.02 ± 0.038 | 1.07 ± 0.036 | 0.963 ± 0.056 | 1.07 ± 0.028 | 1.06 ± 0.021 | 1.01 ± 0.031 | 0.845 ± 0.019 |
| NOS1 BONE | 1.05 ± 0.094 | 1.16 ± 0.28 | 1.18 ± 0.08 | 1.27 ± 0.12 | 1.4 ± 0.15 | 1.21 ± 0.076 | 1.08 ± 0.072 | 0.973 ± 0.19 | 1.09 ± 0.062 | 1.08 ± 0.012 | 1.12 ± 0.078 | 1.16 ± 0.073 | 0.944 ± 0.029 | 0.841 ± 0.04 | 0.68 ± 0.077 | 0.579 ± 0.041 |
| NY BONE | 1.03 ± 0.041 | 1.026 ± 0.0089 | 1.1 ± 0.023 | 1.08 ± 0.027 | 1.11 ± 0.055 | 1.082 ± 0.006 | 0.972 ± 0.0056 | 0.9223 ± 0.0081 | 0.9253 ± 0.009 | 0.98 ± 0.036 | 1.02 ± 0.016 | 0.989 ± 0.024 | 0.9377 ± 0.0067 | 0.887 ± 0.011 | 0.784 ± 0.022 | 0.768 ± 0.026 |
| OS25HAL BONE | 1.02 ± 0.036 | 1.04 ± 0.029 | 1.04 ± 0.014 | 1.02 ± 0.051 | 1.18 ± 0.044 | 1.09 ± 0.021 | 1.04 ± 0.084 | 1.04 ± 0.043 | 0.957 ± 0.017 | 0.963 ± 0.02 | 1.02 ± 0.021 | 0.93 ± 0.022 | 0.941 ± 0.041 | 0.875 ± 0.029 | 0.8397 ± 0.0068 | 0.806 ± 0.068 |
| OSHN BONE | 1.09 ± 0.044 | 1.08 ± 0.023 | 1.1 ± 0.035 | 1.07 ± 0.034 | 1.12 ± 0.016 | 1.146 ± 0.0071 | 1.15 ± 0.016 | 1.1 ± 0.031 | 1.033 ± 0.005 | 1.024 ± 0.0035 | 1.03 ± 0.011 | 1.02 ± 0.0032 | 1.006 ± 0.0085 | 0.958 ± 0.02 | 0.928 ± 0.015 | 0.908 ± 0.027 |
| PCI30 HEADNECK | 1.09 ± 0.017 | 1.07 ± 0.062 | 1.07 ± 0.06 | 1.06 ± 0.023 | 1.12 ± 0.045 | 1.05 ± 0.022 | 0.99 ± 0.091 | 1.02 ± 0.032 | 0.86 ± 0.039 | 0.864 ± 0.05 | 0.954 ± 0.066 | 1.07 ± 0.048 | 1 ± 0.019 | 1.03 ± 0.057 | 0.841 ± 0.036 | 0.84 ± 0.15 |
| RDES SOFT TISSUE | 1.25 ± 0.09 | 1.16 ± 0.052 | 1.16 ± 0.034 | 1.14 ± 0.095 | 1.14 ± 0.14 | 1.15 ± 0.062 | 1.59 ± 0.34 | 0.955 ± 0.11 | 1.2 ± 0.077 | 1.09 ± 0.1 | 1.21 ± 0.064 | 1.13 ± 0.083 | 1.23 ± 0.12 | 1.09 ± 0.076 | 1.1 ± 0.03 | 1.22 ± 0.22 |
| S68 BREAST | 0.947 ± 0.19 | 0.829 ± 0.24 | 1.08 ± 0.052 | 0.952 ± 0.18 | 1.39 ± 0.13 | 1.21 ± 0.11 | 0.916 ± 0.047 | 0.805 ± 0.065 | 1.05 ± 0.1 | 0.948 ± 0.075 | 0.937 ± 0.071 | 1.32 ± 0.15 | 1.2 ± 0.23 | 1.24 ± 0.41 | 0.986 ± 0.24 | 0.889 ± 0.23 |
| SAOS2 BONE | 1.18 ± 0.064 | 1.14 ± 0.068 | 1.23 ± 0.051 | 1.18 ± 0.052 | 1.21 ± 0.034 | 1.2 ± 0.16 | 1.12 ± 0.14 | 0.985 ± 0.042 | 1.13 ± 0.038 | 1.12 ± 0.069 | 1.18 ± 0.12 | 1.14 ± 0.015 | 1.17 ± 0.14 | 1.14 ± 0.14 | 0.993 ± 0.073 | 1.01 ± 0.14 |
| SCC003 HEADNECK | 1.127 ± 0.0056 | 1.14 ± 0.015 | 1.1 ± 0.091 | 1.07 ± 0.057 | 1.13 ± 0.055 | 1.1 ± 0.091 | 1.151 ± 0.0068 | 1.11 ± 0.042 | 0.921 ± 0.063 | 0.878 ± 0.055 | 0.97 ± 0.02 | 0.965 ± 0.047 | 1.08 ± 0.011 | 1.04 ± 0.029 | 0.98 ± 0.03 | 0.936 ± 0.1 |
